target: T1, GST-tagged GDP-loaded KRAS G12V (amino acids 1-169) (Homo sapiens, UniProt P01116, G12V); test: KRAS G12V probe displacement assay (TR-FRET); assay type: binding; conditions: displacement of biotinylated probe 2 from GDP-loaded KRAS G12V
T1 construct: GST-tagged GDP-loaded KRAS G12V (amino acids 1-169); made in house; host or cells: E. coli
Procedure: KRAS WT and KRAS G12V Probe Displacement Assay
This assay was used to identify compounds which bind to GDP-loaded KRAS protein and are able to displace a biotinylated probe occupying the KRAS binding site. GST-tagged GDP-loaded WT KRAS (amino acids 1-169) and GST-tagged GDP-loaded KRAS G12V (amino acids 1-169) were expressed in E. coli and purified in house. All protein and reaction solutions were prepared in assay buffer containing 50 mM HEPES pH7.5, 50 mM NaCl, 1 mM MgCl2, 1 mM TCEP, 0.01% BSA, and 0.008% Brij-35. Purified WT KRAS (3 nM final concentration) or KRAS G12V protein (2 nM final concentration) was incubated with a 3-fold serially diluted compound in the assay plate (384 well microplate, black, Corning). Plates are incubated at 24° C. for 1 hr. Following the incubation, biotinylated probe 1 (60 nM final assay concentration) for WT KRAS and biotinylated probe 2 (2.5 nM final assay concentration) for KRAS G12V was added to the assay plate, respectively. After 1 hr incubation at 24° C., Mab Anti-GST-Tb cryptate (Cisbio) and Streptavidin-XL665 (Cisbio) were added and further incubated at 24° C. for another 1 hr. The TR-FRET signals (ex337 nm, em665 nm/620 nm) were read on BMG PHERAstar FSX instrument. The inhibition percentage of KRAS protein binding with biotinylated probe in presence of increasing concentrations of compounds was calculated based on the ratio of fluorescence at 665 nm to that at 620 nm. The IC50 value of each compound was calculated from fitting the data to the four-parameter logistic model by Dotmatics.

T1 sequence (P01116 1-169 isoform P01116-2 G12V): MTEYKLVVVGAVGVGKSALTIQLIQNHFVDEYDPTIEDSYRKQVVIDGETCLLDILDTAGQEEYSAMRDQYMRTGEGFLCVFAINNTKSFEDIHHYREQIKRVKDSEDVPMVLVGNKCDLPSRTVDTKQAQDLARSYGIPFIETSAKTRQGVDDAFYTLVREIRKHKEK

Row | SMILES | IC50 [nM]
1 | Nc1nc2c(-c3c(C(F)(F)F)cc4c(N[C@H]5C[C@@H](F)C5)nc(OC[C@@]56CCCN5C[C@H](F)C6)nc4c3F)ccc(F)c2s1 [Example 15, 7-fluoro-4-(8-fluoro-4-(((cis)-3-fluorocyclobutyl)amino)-2-(((2R,7aS)-2-fluorotetrahydro-1H-pyrrolizin-7a(5H)-yl)methoxy)-6-(trifluoromethyl)quinazolin-7-yl)benzo[d]thiazol-2-amine] | 17
2 | Nc1nc2c(-c3c(C(F)(F)F)cc4c(N[C@H]5C[C@H](F)C5)nc(OC[C@@]56CCCN5C[C@H](F)C6)nc4c3F)ccc(F)c2s1 [Example 16, 7-fluoro-4-(8-fluoro-4-(((trans)-3-fluorocyclobutyl)amino)-2-(((2R,7aS)-2-fluorotetrahydro-1H-pyrrolizin-7a(5H)-yl)methoxy)-6-(trifluoromethyl)quinazolin-7-yl)benzo[d]thiazol-2-amine] | 14
3 | Nc1nc2c(-c3c(C(F)(F)F)cc4c(NC5CC(F)(F)C5)nc(OC[C@@]56CCCN5C[C@H](F)C6)nc4c3F)ccc(F)c2s1 [Example 17, 4-(4-((3,3-difluorocyclobutyl)amino)-8-fluoro-2-(((2R,7aS)-2-fluorotetrahydro-1H-pyrrolizin-7a(5H)-yl)methoxy)-6-(trifluoromethyl)quinazolin-7-yl)-7-fluorobenzo[d]thiazol-2-amine] | 43
4 | N#C[C@H]1C[C@@H](Nc2nc(OC[C@@]34CCCN3C[C@H](F)C4)nc3c(F)c(-c4ccc(F)c5sc(N)nc45)c(C(F)(F)F)cc23)C1 [Example 18, (cis)-3-((7-(2-amino-7-fluorobenzo[d]thiazol-4-yl)-8-fluoro-2-(((2R,7aS)-2-fluorotetrahydro-1H-pyrrolizin-7a(5H)-yl)methoxy)-6-(trifluoromethyl)quinazolin-4-yl)amino)cyclobutane-1-carbonitrile] | 13
5 | N#C[C@H]1C[C@H](Nc2nc(OC[C@@]34CCCN3C[C@H](F)C4)nc3c(F)c(-c4ccc(F)c5sc(N)nc45)c(C(F)(F)F)cc23)C1 [Example 19, (trans)-3-((7-(2-amino-7-fluorobenzo[d]thiazol-4-yl)-8-fluoro-2-(((2R,7aS)-2-fluorotetrahydro-1H-pyrrolizin-7a(5H)-yl)methoxy)-6-(trifluoromethyl)quinazolin-4-yl)amino)cyclobutane-1-carbonitrile] | 9.9
6 | Nc1nc2c(-c3c(C(F)(F)F)cc4c(N[C@H]5C[C@@H](CO)C5)nc(OC[C@@]56CCCN5C[C@H](F)C6)nc4c3F)ccc(F)c2s1 [Example 20, ((cis)-3-((7-(2-amino-7-fluorobenzo[d]thiazol-4-yl)-8-fluoro-2-(((2R,7aS)-2-fluorotetrahydro-1H-pyrrolizin-7a(5H)-yl)methoxy)-6-(trifluoromethyl)quinazolin-4-yl)amino)cyclobutyl)methanol] | 7.9
7 | Nc1nc2c(-c3c(C(F)(F)F)cc4c(N[C@H]5C[C@H](CO)C5)nc(OC[C@@]56CCCN5C[C@H](F)C6)nc4c3F)ccc(F)c2s1 [Example 21, ((trans)-3-((7-(2-amino-7-fluorobenzo[d]thiazol-4-yl)-8-fluoro-2-(((2R,7aS)-2-fluorotetrahydro-1H-pyrrolizin-7a(5H)-yl)methoxy)-6-(trifluoromethyl)quinazolin-4-yl)amino)cyclobutyl)methanol] | 4.1
8 | Nc1nc2c(-c3c(C(F)(F)F)cc4c(NC5CC6(CCC6)C5)nc(OC[C@@]56CCCN5C[C@H](F)C6)nc4c3F)ccc(F)c2s1 [Example 22, 7-fluoro-4-(8-fluoro-2-(((2R,7aS)-2-fluorotetrahydro-1H-pyrrolizin-7a(5H)-yl)methoxy)-4-(spiro[3.3]heptan-2-ylamino)-6-(trifluoromethyl)quinazolin-7-yl)benzo[d]thiazol-2-amine] | 367
9 | Nc1nc2c(-c3c(C(F)(F)F)cc4c(NC5CC6(COC6)C5)nc(OC[C@@]56CCCN5C[C@H](F)C6)nc4c3F)ccc(F)c2s1 [Example 23, 4-(4-((2-oxaspiro[3.3]heptan-6-yl)amino)-8-fluoro-2-(((2R,7aS)-2-fluorotetrahydro-1H-pyrrolizin-7a(5H)-yl)methoxy)-6-(trifluoromethyl)quinazolin-7-yl)-7-fluorobenzo[d]thiazol-2-amine] | 23
10 | Nc1nc2c(-c3c(C(F)(F)F)cc4c(NC56CC(C5)C6)nc(OC[C@@]56CCCN5C[C@H](F)C6)nc4c3F)ccc(F)c2s1 [Example 24, 4-(4-(bicyclo [1.1.1]pentan-1-ylamino)-8-fluoro-2-(((2R,7aS)-2-fluorotetrahydro-1H-pyrrolizin-7a(5H)-yl)methoxy)-6-(trifluoromethyl)quinazolin-7-yl)-7-fluorobenzo[d]thiazol-2-amine] | 24
11 | N#C[C@H]1CCC[C@H]1Nc1nc(OC[C@@]23CCCN2C[C@H](F)C3)nc2c(F)c(-c3ccc(F)c4sc(N)nc34)c(C(F)(F)F)cc12 [Example 26, (1S,2R)-2-((7-(2-amino-7-fluorobenzo[d]thiazol-4-yl)-8-fluoro-2-(((2R,7aS)-2-fluorotetrahydro-1H-pyrrolizin-7a(5H)-yl)methoxy)-6-(trifluoromethyl)quinazolin-4-yl)amino)cyclopentane-1-carbonitrile] | 11
12 | Nc1nc2c(-c3c(C(F)(F)F)cc4c(NC5CCCCC5)nc(OC[C@@]56CCCN5C[C@H](F)C6)nc4c3F)ccc(F)c2s1 [Example 27, 4-(4-(cyclohexylamino)-8-fluoro-2-(((2R,7aS)-2-fluorotetrahydro-1H-pyrrolizin-7a(5H)-yl)methoxy)-6-(trifluoromethyl)quinazolin-7-yl)-7-fluorobenzo[d]thiazol-2-amine] | 503
13 | Nc1nc2c(-c3c(Cl)cc4c(NC5CC5)nc(OC[C@@]56CCCN5C[C@H](F)C6)nc4c3F)ccc(F)c2s1 [Example 28, 4-(6-chloro-4-(cyclopropylamino)-8-fluoro-2-(((2R,7aS)-2-fluorotetrahydro-1H-pyrrolizin-7a(5H)-yl)methoxy)quinazolin-7-yl)-7-fluorobenzo[d]thiazol-2-amine] | 3.8
14 | Nc1nc2c(-c3c(Cl)cc4c(N[C@H]5[C@@H]6COC[C@@H]65)nc(OC[C@@]56CCCN5C[C@H](F)C6)nc4c3F)ccc(F)c2s1 [Example 29, 4-(4-(((1R,5S,6r)-3-oxabicyclo[3.1.0]hexan-6-yl)amino)-6-chloro-8-fluoro-2-(((2R,7aS)-2-fluorotetrahydro-1H-pyrrolizin-7a(5H)-yl)methoxy)quinazolin-7-yl)-7-fluorobenzo[d]thiazol-2-amine] | 15
15 | CC(=O)N1C[C@@H]2[C@H](C1)[C@H]2Nc1nc(OC[C@@]23CCCN2C[C@H](F)C3)nc2c(F)c(-c3ccc(F)c4sc(N)nc34)c(Cl)cc12 [Example 30, 1-((1R,5S,6s)-6-((7-(2-amino-7-fluorobenzo[d]thiazol-4-yl)-6-chloro-8-fluoro-2-(((2R,7aS)-2-fluorotetrahydro-1H-pyrrolizin-7a(5H)-yl)methoxy)quinazolin-4-yl)amino)-3-azabicyclo[3.1.0]hexan-3-yl)ethan-1-one] | 3.5
16 | Nc1nc2c(-c3c(Cl)cc4c(NC5CCC5)nc(OC[C@@]56CCCN5C[C@H](F)C6)nc4c3F)ccc(F)c2s1 [Example 31, 4-(6-chloro-4-(cyclobutylamino)-8-fluoro-2-(((2R,7aS)-2-fluorotetrahydro-1H-pyrrolizin-7a(5H)-yl)methoxy)quinazolin-7-yl)-7-fluorobenzo[d]thiazol-2-amine] | 57
17 | Nc1nc2c(-c3c(Cl)cc4c(NC56CC(C5)C6)nc(OC[C@@]56CCCN5C[C@H](F)C6)nc4c3F)ccc(F)c2s1 [Example 32, 4-(4-(bicyclo[1.1.1]pentan-1-ylamino)-6-chloro-8-fluoro-2-(((2R,7aS)-2-fluorotetrahydro-1H-pyrrolizin-7a(5H)-yl)methoxy)quinazolin-7-yl)-7-fluorobenzo[d]thiazol-2-amine] | 21
18 | CC1CN(c2nc(OC[C@@]34CCCN3C[C@H](F)C4)nc3c(F)c(-c4ccc(F)c5sc(N)nc45)c(C(F)(F)F)cc23)C1 [Example 34, 7-fluoro-4-(8-fluoro-2-(((2R,7aS)-2-fluorotetrahydro-1H-pyrrolizin-7a(5H)-yl)methoxy)-4-(3-methylazetidin-1-yl)-6-(trifluoromethyl)quinazolin-7-yl)benzo[d]thiazol-2-amine] | 52
19 | CC1CCN1c1nc(OC[C@@]23CCCN2C[C@H](F)C3)nc2c(F)c(-c3ccc(F)c4sc(N)nc34)c(C(F)(F)F)cc12 (some centres unmarked) [Example 35] | 30
20 | CC1(C)CCN1c1nc(OC[C@@]23CCCN2C[C@H](F)C3)nc2c(F)c(-c3ccc(F)c4sc(N)nc34)c(C(F)(F)F)cc12 [Example 36, 4-(4-(2,2-dimethylazetidin-1-yl)-8-fluoro-2-(((2R,7aS)-2-fluorotetrahydro-1H-pyrrolizin-7a(5H)-yl)methoxy)-6-(trifluoromethyl)quinazolin-7-yl)-7-fluorobenzo[d]thiazol-2-amine] | 19

Source: US20250101028A1, “HETEROCYCLIC COMPOUNDS, COMPOSITIONS THEREOF, AND METHODS OF TREATMENT THEREWITH” (BeiGene, Ltd., priority 2022, published 2025)
